As a reminder, the pIC50 is the IC50 on a negative log10 scale, so that one unit is a factor of ten.

pIC50: −log10 of the molar value. Numbered stars: 1 amine (or outer) side, 2 acyl side, 3 side chain; on linkers, the order of the positions; unused ones are H or OH. Square brackets hold non-standard residues; d marks the D form. Peptide text beside a SMILES is read from it. * marks the point of attachment. X2 = O=C(Cc1ccc(N[*:1])cc1)[*:2]; NH(2-F-phenyl) = Fc1ccccc1N*; PhAc = O=C(Cc1ccccc1)*; CO = O=C([*:1])[*:2]; NHBn = c1ccc(CN*)cc1; NHPh = c1ccc(N*)cc1; Bn = c1ccc(C*)cc1 Some results are limits rather than exact numbers.

For the first assay, the target named is T1, VLA4 (Homo sapiens, UniProt P05556+P13612).
T1 construct: endogenous in cells; host or cells: Ramos cells
T1 sequence (P13612 34-1032): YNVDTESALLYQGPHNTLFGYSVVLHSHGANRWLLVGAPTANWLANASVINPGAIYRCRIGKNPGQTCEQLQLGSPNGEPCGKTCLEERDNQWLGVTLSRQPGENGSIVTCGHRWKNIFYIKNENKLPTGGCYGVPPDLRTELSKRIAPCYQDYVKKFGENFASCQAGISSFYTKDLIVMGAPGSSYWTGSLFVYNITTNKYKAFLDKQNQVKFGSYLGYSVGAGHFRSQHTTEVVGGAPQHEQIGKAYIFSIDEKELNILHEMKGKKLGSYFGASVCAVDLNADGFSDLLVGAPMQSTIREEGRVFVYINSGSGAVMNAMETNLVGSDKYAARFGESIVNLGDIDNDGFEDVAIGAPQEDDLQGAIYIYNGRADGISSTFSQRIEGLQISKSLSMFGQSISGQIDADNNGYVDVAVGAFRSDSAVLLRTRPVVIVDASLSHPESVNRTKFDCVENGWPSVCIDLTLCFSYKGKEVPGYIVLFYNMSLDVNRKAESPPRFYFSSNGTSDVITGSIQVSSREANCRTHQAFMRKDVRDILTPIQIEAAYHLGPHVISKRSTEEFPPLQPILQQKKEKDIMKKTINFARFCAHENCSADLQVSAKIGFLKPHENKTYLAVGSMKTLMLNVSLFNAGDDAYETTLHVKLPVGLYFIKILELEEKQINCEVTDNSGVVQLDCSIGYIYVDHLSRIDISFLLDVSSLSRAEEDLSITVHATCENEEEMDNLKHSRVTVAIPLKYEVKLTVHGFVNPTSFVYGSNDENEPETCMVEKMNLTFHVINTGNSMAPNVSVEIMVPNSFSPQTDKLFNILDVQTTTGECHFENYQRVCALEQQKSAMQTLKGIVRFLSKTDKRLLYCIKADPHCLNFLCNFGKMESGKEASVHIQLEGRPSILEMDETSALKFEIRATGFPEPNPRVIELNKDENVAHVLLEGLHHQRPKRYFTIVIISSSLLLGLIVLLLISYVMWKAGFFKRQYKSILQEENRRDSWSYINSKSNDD
T1 sequence (P05556 21-798): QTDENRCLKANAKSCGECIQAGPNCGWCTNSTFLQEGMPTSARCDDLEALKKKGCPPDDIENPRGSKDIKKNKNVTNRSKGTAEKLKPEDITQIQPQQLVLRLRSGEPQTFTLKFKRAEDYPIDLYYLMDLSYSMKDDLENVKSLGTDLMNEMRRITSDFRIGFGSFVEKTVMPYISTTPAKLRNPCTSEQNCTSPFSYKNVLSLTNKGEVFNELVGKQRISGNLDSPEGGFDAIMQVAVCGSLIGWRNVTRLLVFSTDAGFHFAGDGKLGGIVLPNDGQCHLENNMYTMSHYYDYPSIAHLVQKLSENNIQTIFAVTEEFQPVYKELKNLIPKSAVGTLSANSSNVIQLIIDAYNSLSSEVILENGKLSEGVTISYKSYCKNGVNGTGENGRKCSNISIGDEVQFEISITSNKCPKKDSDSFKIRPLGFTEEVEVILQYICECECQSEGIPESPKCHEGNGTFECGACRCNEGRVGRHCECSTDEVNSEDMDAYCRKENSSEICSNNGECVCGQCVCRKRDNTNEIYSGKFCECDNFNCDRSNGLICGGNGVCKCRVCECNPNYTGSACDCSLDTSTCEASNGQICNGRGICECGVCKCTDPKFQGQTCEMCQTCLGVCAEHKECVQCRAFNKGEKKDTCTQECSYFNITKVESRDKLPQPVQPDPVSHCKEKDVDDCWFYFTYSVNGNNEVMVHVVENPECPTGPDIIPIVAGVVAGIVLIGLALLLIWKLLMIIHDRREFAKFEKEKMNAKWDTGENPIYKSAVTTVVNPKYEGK
The assay can be described thus: Inhibition of VLA4-dependent adhesion of Ramos cells to BSA-CS1. The assay is classed as cell-based.
Settings: not given
A digest of the protocol: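 BCECF-AM-labelled Ramos cells in Tris buffer pH 7.4 with 2 mM MnCl2 were added with compound to wells coated with BSA-conjugated Cys-Tyr-CS1 peptide (1 μg/mL). Cells and compound were incubated for 30 min at room temperature, in triplicate. Inhibition was quantified from bound fluorescence against no-compound controls, with uncoated wells used for nonspecific binding.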
The compound `CC(C)CC(NC(=O)C1CCc2ccccc2N1)C(=O)NC(CC(=O)O)C(=O)NC(C(=O)N(C)c1ccccc1)C(C)C` (stereo not drawn) [Compound 120] showed a pIC50 of less than 5.00.

The assay is the same for the next values; noted with them: Ramos cells, BSA-CS1 coated wells, 2 mM MnCl2, 30 minutes at room temperature; read-out: IC50.
`CC(C)CNC(=O)[C@H](CC(=O)O)NC(=O)[C@H](CC(C)C)NC(=O)CCC(=O)Nc1ccccc1` [Compound 111]: the pIC50 was less than 5.00.
Same read-out and setting: as for `CC(C)CC(NC(=O)Cc1ccc(NC(=O)Nc2ccccc2)cc1)C(=O)NC(CC(=O)O)C(=O)NC1CCCCC1` (stereo not drawn) [Compound 216], the figure is 5.00 to 7.30.
On the same count and under the same terms, the figure for `CC(C)C[C@H](NC(=O)c1ccc2ccccc2n1)C(=O)N[C@@H](CC(=O)O)C(=O)NC(CO)C(C)C` (stereo partly drawn) [Compound 174] is 5.00 to 7.30; for `CC(C)C[C@H](NC(=O)CCC(=O)Nc1ccc(F)cc1)C(=O)N[C@@H](CC(=O)O)C(=O)N[C@H](C(=O)O)C(C)C` [Compound 108] it is less than 5.00; for `CC(C)[C@H](NC(=O)[C@H](CC(=O)O)NC(=O)c1ccccn1)C(=O)O` [Compound 78] it is less than 5.00.
The same measure, in the same setting: as for `CCCCNC(=O)[C@@H](NC(=O)[C@H](CC(=O)O)NC(=O)[C@H](CC(C)C)NC(=O)OC(C)(C)C)[C@@H](C)O` [Compound 354] (HELM PEPTIDE1{[CC(C)(C)OC(=O)[*:2]].L.D.T.[CCCCN[*:1]]}$$$$V2.0), the figure is less than 5.00; as for `CC(C)C[C@H](NC(=O)Cc1ccc(NC(=O)Nc2ccccc2)cc1)C(=O)N[C@@H](CC(=O)O)C(=O)N[C@H](C(=O)NC1CCCCC1)C(C)C` [Compound 320], 5.00 to 7.30.
Consider `Cc1ccccc1NC(=O)Nc1ccc(CC(=O)N[C@@H](CC(C)C)C(=O)N[C@@H](CC(=O)O)C(=O)N[C@@H](Cc2c[nH]c3ccccc23)C(N)=O)cc1` [Compound 239], for which the negative-log IC50 (pIC50) is greater than 7.30.
The same measure, in the same setting: the figure for `CC(C)C[C@H](NC(=O)c1cc2ccccc2[nH]1)C(=O)N[C@@H](CC(=O)O)C(=O)N[C@H](C(=O)O)C(C)C` [Compound 99] is less than 5.00; for `COC(=O)[C@@H](NC(=O)[C@H](CC(=O)O)NC(=O)[C@H](CC(C)C)N(CCc1ccccc1)C(C)=O)C(C)C` [Compound 29] it is less than 5.00.
Still for that read-out and setting: the figure for `COC(=O)[C@@H](NC(=O)[C@H](CC(=O)O)NC(=O)[C@H](CC(C)C)NC(=O)Cc1ccccc1)[C@@H](C)O` [Compound 191] (HELM PEPTIDE1{[O=C(Cc1ccccc1)[*:2]].L.D.T.[CO[*:1]]}$$$$V2.0) is less than 5.00; for `CNC(=O)[C@@H](NC(=O)[C@H](CC(=O)O)NC(=O)[C@H](CC(C)C)NC(=O)c1ccc2ccccc2n1)C(C)C` [Compound 164] it is 5.00 to 7.30.
The same measure, in the same setting: as for `CC(C)CNC(=O)[C@@H](NC(=O)[C@H](CC(=O)O)NC(=O)[C@H](CC(C)C)NC(=O)Cc1ccc(NC(=O)Nc2ccccc2)cc1)C(C)C` [Compound 205], the figure is 5.00 to 7.30; as for `CCCCCCNC(=O)[C@@H](NC(=O)[C@H](CC(=O)O)NC(=O)[C@H](CC(C)C)NC(=O)CCc1ccc(O)cc1)C(C)C` [Compound 119], less than 5.00; as for `CC(C)CCNC(=O)[C@H](CC(=O)O)NC(=O)[C@H](CC(C)C)NC(=O)CCc1ccc(O)cc1` [Compound 103], less than 5.00.
Turning to `CC(C)C[C@@H](C(=O)N[C@@H](CC(=O)O)C(=O)N[C@H](C(=O)O)C(C)C)N(C)C(=O)c1ccccc1` [Compound 113] (HELM PEPTIDE1{[O=C(c1ccccc1)[*:2]].[meL].D.V}$$$$V2.0), the pIC50 is less than 5.00.
On to `COC(=O)[C@@H](NC(=O)[C@H](CC(=O)O)NC(=O)[C@H](CC(C)C)N(CCc1ccccc1)C(=O)CCc1ccccc1)C(C)C` [Compound 30], for which the pIC50 was less than 5.00.
The same measure, in the same setting: as for `CC(C)C[C@H](NC(=O)Cc1ccc(NC(=O)Nc2ccccc2)cc1)C(=O)N[C@@H](CC(=O)O)C(=O)N[C@H](C(=O)NC(C)C)C(C)C` [Compound 319], the figure is 5.00 to 7.30; as for `Cc1ccccc1NC(=O)Nc1ccc(CC(=O)N2CCC[C@H]2C(=O)N[C@@H](CCC(=O)O)C(=O)N[C@H](C(N)=O)C(C)C)cc1` [Compound 313], greater than 7.30; as for `COC(=O)[C@@H]1CCCN1C(=O)[C@@H](NC(=O)[C@H](CC(=O)O)NC(=O)[C@H](CC(C)C)NC(=O)OC(C)(C)C)C(C)C` [Compound 40], less than 5.00.
On the same count and under the same terms, the figure for `COC(=O)[C@@H]1CCCN1C(=O)[C@@H](NC(=O)[C@H](CC(=O)O)NC(=O)[C@H](CC(C)C)NC(=O)c1ccc2ccccc2n1)C(C)C` [Compound 41] is 5.00 to 7.30; for `COC(=O)[C@@H](NC(=O)[C@H](CC(=O)O)NC(=O)[C@H](CC(C)C)NC(=O)C1Cc2ccccc2CN1)C(C)C` (stereo partly drawn) [Compound 154] (HELM PEPTIDE1{[O=C(C1Cc2ccccc2CN1)[*:2]].L.D.V.[CO[*:1]]}$$$$V2.0) it is less than 5.00; for `COC(=O)[C@@H](NC(=O)[C@H](CC(=O)O)NC(=O)[C@H](CC(C)C)NS(=O)(=O)c1ccc(OC)cc1)[C@@H](C)O` [Compound 177] it is less than 5.00.
On the same count and under the same terms, as for `CC(C)C[C@H](NC(=O)Cc1ccc(NC(=O)Nc2ccccc2)cc1)C(=O)N[C@@H](CC(=O)O)C(=O)N[C@H](C(=O)N1CCOCC1)C(C)C` [Compound 318], the figure is greater than 7.30; as for `CC(C)C[C@H](NC(=O)c1ccccc1)C(=O)N[C@@H](CC(=O)O)C(=O)N[C@H](C(=O)O)C(C)C` [Compound 105] (HELM PEPTIDE1{[O=C(c1ccccc1)[*:2]].L.D.V}$$$$V2.0), less than 5.00; as for `CC(C)C[C@H](NC(=O)Cc1ccc(NC(=O)Nc2ccccc2)cc1)C(=O)N[C@@H](CC(=O)O)C(=O)N[C@H](C(=O)N1CCC[C@H]1C(=O)NCc1ccccc1)C(C)C` [Compound 326] ({NHPh-CO}-[X2]LDVP-NHBn), greater than 7.30.
For the compound `CC(C)C[C@H](NC(=O)c1ccc2ccccc2n1)C(=O)N[C@@H](CC(=O)O)C(=O)N[C@H](C(=O)OC(C)(C)C)C(C)C` [Compound 158], the pIC50 is less than 5.00.
Regarding `CC(C)CNC(=O)[C@H](CC(=O)O)NC(=O)[C@H](CC(C)C)NC(=O)c1ccccc1` [Compound 101], the pIC50 is less than 5.00.
Same read-out and setting: as for `CNC(=O)[C@@H](NC(=O)[C@H](CC(=O)O)NC(=O)[C@H](CC(N)=O)NC(=O)Cc1ccccc1)C(C)C` [Compound 132] (HELM PEPTIDE1{[O=C(Cc1ccccc1)[*:2]].N.D.V.[CN[*:1]]}$$$$V2.0), the figure is less than 5.00; as for `CC(C)C[C@H](NC(=O)Cc1ccc(NC(=O)Nc2ccccc2F)cc1)C(=O)N[C@@H](CC(=O)O)C(=O)N[C@H](C(=O)N1CCC[C@H]1C(=O)O)C(C)C` [Compound 347] ({NH(2-F-phenyl)-CO}-[X2]LDVP-OH), greater than 7.30.
In the case of `COC(=O)[C@@H](NC(=O)[C@H](CC(=O)O)NC(=O)[C@H](CC(C)C)NC(=O)Cc1ccccc1)[C@@H](C)OCc1ccccc1` [Compound 192] (PhAc-Leu-Asp-Thr(Bn)-OMe), the pIC50 is 5.00 to 7.30.
Take `COC(=O)[C@@H](NC(=O)[C@H](CC(=O)O)NC(=O)[C@H](CC(C)C)N(C)C(=O)CCCc1ccccc1)C(C)C` [Compound 143]: the pIC50 is less than 5.00.
The same measure, in the same setting: as for `COC(=O)[C@@H](NC(=O)[C@H](CC(=O)O)NC(=O)[C@H](CC(C)C)NC(=O)c1cc2ccccc2cn1)C(C)C` [Compound 156], the figure is 5.00 to 7.30; as for `CC(C)C[C@H](NC(=O)c1ccc2ccccc2n1)C(=O)N[C@@H](CC(=O)O)C(=O)N[C@H](C(=O)N1CCOCC1)[C@@H](C)O` [Compound 61], 5.00 to 7.30.
The same measure, in the same setting: as for `CNC(=O)[C@@H](NC(=O)[C@H](CC(=O)O)NC(=O)[C@H](CC(C)C)NC(=O)c1ccc2ccccc2n1)[C@@H](C)OC` [Compound 59], the figure is 5.00 to 7.30.
